Data on 17 compounds can be found in ChEMBL document CHEMBL1131296 (J Med Chem, 1998).

Assay [1] has as its target T1, Adrenergic receptor alpha-2 (Rattus norvegicus, UniProt P22086+P19328+P22909).
T1 sequence (P22086 whole entry): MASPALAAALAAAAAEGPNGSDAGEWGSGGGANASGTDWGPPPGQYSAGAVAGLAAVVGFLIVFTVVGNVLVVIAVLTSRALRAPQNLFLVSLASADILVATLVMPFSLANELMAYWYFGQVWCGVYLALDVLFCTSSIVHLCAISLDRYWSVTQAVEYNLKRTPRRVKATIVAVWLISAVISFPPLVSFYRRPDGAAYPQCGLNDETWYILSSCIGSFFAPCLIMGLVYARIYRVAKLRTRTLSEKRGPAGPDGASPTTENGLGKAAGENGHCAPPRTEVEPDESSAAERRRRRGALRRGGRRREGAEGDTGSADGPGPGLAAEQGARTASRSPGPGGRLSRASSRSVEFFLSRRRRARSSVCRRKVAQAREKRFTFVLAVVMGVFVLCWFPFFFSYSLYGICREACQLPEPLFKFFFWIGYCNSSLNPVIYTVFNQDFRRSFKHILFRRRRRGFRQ
T1 sequence (P19328 whole entry): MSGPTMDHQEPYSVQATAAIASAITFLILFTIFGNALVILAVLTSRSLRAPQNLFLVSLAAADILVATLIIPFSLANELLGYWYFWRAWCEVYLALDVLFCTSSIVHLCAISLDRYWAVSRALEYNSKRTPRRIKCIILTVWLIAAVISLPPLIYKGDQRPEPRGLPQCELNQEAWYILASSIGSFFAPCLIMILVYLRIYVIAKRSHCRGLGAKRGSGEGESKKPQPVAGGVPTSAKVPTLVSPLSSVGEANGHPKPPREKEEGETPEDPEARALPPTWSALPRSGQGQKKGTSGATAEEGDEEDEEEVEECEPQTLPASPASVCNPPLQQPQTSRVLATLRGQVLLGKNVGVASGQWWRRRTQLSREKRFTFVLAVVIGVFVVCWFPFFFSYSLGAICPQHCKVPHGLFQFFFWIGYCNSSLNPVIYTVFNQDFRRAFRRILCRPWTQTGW
T1 sequence (P22909 whole entry): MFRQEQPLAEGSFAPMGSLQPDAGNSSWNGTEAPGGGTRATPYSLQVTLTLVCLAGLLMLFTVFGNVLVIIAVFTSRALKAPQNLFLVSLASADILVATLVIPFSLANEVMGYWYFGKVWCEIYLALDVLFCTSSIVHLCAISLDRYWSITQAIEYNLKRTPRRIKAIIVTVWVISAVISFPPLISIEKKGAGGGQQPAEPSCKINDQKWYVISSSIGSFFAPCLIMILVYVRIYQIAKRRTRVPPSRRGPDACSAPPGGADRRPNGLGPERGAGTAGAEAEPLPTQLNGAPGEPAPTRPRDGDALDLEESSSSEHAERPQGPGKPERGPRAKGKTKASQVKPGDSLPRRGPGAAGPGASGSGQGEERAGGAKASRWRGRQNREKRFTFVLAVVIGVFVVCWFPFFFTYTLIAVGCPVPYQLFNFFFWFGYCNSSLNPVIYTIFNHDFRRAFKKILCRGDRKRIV
Nature of the assay: Antagonism of the clonidine-induced depression of twitch responses of rat isolated prostatic vas deferens.

Assay [2] addresses T2, Alpha-1D adrenergic receptor (Rattus norvegicus, UniProt P23944).
T2 sequence (P23944 whole entry): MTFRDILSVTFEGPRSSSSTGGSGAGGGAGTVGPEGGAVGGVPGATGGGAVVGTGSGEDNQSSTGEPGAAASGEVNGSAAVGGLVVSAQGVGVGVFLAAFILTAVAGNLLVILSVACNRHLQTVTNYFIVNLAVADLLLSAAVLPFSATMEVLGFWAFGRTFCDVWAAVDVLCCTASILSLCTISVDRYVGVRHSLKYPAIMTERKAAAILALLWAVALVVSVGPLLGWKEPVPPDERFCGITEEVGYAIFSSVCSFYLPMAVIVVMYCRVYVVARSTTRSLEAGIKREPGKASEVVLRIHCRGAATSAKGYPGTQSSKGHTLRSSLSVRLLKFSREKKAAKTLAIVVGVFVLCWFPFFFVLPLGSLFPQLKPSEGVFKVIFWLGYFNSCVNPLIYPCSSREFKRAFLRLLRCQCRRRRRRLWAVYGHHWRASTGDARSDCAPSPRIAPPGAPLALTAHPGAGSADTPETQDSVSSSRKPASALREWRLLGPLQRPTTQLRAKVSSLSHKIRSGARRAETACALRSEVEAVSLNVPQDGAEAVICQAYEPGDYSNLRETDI
The experiment in a line: Antagonism of norepinephrine induced contraction of rat isolated thoracic aorta. The format is functional, tissue-based. The settings on record: read-out: pA2 (converted).

Assay [3] has as its target T3, Alpha-1B adrenergic receptor (Rattus norvegicus, UniProt P15823).
T3 sequence (P15823 whole entry): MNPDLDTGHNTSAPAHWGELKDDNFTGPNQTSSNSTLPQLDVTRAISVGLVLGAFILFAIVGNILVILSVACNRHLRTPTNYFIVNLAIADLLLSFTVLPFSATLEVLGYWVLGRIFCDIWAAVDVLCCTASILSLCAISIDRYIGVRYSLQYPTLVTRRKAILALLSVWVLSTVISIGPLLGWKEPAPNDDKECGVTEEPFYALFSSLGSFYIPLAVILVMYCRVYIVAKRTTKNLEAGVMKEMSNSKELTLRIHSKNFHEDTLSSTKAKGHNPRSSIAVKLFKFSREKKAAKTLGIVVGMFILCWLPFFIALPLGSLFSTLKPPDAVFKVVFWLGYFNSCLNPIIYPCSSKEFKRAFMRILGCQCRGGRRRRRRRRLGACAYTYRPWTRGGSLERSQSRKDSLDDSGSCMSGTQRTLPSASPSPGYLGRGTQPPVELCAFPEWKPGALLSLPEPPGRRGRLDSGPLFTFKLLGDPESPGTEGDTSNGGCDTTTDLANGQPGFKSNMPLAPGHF
Nature of the assay: Antagonism of phenylephrine stimulated contraction of the rat isolated spleen. The format is functional, tissue-based. Conditions: read-out: pA2 (converted).

In assay [4] the target is T4, Alpha-1A adrenergic receptor (Rattus norvegicus, UniProt P43140).
T4 sequence (P43140 whole entry): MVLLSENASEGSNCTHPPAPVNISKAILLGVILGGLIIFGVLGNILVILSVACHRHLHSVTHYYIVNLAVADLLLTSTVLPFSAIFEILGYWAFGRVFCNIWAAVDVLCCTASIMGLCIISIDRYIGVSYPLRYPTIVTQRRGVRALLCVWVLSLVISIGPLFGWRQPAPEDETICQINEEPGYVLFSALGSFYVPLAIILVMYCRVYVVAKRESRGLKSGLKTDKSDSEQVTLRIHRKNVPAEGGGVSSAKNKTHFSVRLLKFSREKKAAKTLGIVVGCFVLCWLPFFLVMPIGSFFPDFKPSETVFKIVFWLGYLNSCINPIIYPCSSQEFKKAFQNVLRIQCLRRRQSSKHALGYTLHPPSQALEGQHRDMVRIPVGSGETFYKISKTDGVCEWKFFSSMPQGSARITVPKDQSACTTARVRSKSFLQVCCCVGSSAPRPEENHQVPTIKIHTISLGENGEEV
Nature of the assay: Antagonism of the norepinephrine induced contraction of rat isolated prostatic vas deferens. Format: functional. Conditions: read-out: pA2 (converted).

For assay [5], the target named is T5, Alpha-1B adrenergic receptor (Homo sapiens, UniProt P35368).
T5 sequence (P35368 whole entry): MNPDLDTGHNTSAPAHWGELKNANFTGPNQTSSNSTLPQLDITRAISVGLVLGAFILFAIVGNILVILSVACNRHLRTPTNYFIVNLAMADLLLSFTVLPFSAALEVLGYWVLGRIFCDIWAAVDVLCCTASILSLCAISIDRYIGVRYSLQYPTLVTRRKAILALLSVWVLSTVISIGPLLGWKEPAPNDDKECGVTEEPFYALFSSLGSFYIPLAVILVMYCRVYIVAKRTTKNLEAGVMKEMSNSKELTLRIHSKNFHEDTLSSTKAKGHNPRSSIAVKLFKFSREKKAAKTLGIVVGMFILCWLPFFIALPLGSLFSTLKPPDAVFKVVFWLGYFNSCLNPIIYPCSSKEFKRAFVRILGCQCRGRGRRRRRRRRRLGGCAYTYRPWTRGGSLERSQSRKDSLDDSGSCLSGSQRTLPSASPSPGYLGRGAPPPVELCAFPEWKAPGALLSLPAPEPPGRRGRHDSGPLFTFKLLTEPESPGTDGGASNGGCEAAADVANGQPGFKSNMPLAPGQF
The experiment in a line: Binding affinity at human cloned Alpha-1B adrenergic receptor in chinese hamster ovary cells by [3H]prazosin displacement. The format is cell-based, CHO.

Each structure is given as a SMILES string.

On to `COc1cc2nc(N(C)CCCCCCN(C)C(=O)c3ccc(CCl)cc3)nc(N)c2cc1OC`, for which the pA2 in assay [1] turned out to be 5.54. Further, the Kb in assay [2] was 19.5 nM; in assay [3], 0.708 nM; in assay [4], 77.6 nM.
For the compound `COc1cc2nc(N(C)CCCCCCN(C)C(=O)c3cccc(CN4CCSC4)c3)nc(N)c2cc1OC`, in assay [1], the pA2 came to 5.94. The Kb was 3.09 nM in assay [2], 9.33 nM in assay [3] and 15.1 nM in assay [4].
For `COc1cc2nc(N(C)CCCCCCN(C)C(=O)c3ccc(CN(C)C)cc3)nc(N)c2cc1OC`, in that order: 5.12, 13.8 nM, 2.95 nM and 72.4 nM.
As for `COc1cc2nc(N(C)CCCCCCN(C)C(=O)c3ccccc3)nc(N)c2cc1OC`, the pA2 in assay [1] amounted to 6.52. Moreover, the values for the Kb in assay [2], in assay [3] and in assay [4] were 6.92 nM, 0.447 nM and 38 nM, respectively.
The matching figures for `COc1cc2nc(N(C)CCSSCCN(C)C(=O)c3ccc(CN(C)C)o3)nc(N)c2cc1OC`: under 5, 6.03 nM, 53.7 nM and 200 nM.
For `COc1cc2nc(N(C)CCCCCCN(C)C(=O)c3cccc(CN)c3)nc(N)c2cc1OC`, in that order: 5.44, 2.04 nM, 2.45 nM and 47.9 nM.
For `COc1cc2nc(N(C)CCCCCCN(C)C(=O)c3ccc(CN4CCSC4)cc3)nc(N)c2cc1OC`, in that order: under 5, 6.76 nM, 9.77 nM and 58.9 nM.
As for `COc1cc2nc(N(C)CCCCCCN(C)C(=O)c3ccc(CCl)o3)nc(N)c2cc1OC`, the pA2 in assay [1] is recorded as under 5. For the same compound, the Kb is 0.407 nM in assay [2], 1.07 nM in assay [3] and 6.76 nM in assay [4].
For the compound `COc1cc2nc(N(C)CCCCCCN(C)C(=O)c3cccc(CCl)c3)nc(N)c2cc1OC`, the pA2 in assay [1] was under 5. For the same compound, the Kb in assay [2] was 51.3 nM; in assay [3], 66.1 nM; in assay [4] it was 79.4 nM.
For `COc1cc2nc(N(C)CCSSCCN(C)C(=O)c3ccc(CCl)o3)nc(N)c2cc1OC`, in that order: under 5, 9.33 nM, 42.7 nM and 16.6 nM.
In assay [1], `COc1cc2nc(N(C)CCCCCCN(C)C(=O)c3ccccc3CNCCCCCCN)nc(N)c2cc1OC` came in with a pA2 of 5.47. Also, the figures for the Kb in assay [2], in assay [3] and in assay [4] were 3.16 nM, 0.676 nM and 10.7 nM, respectively.
The matching figures for `COc1cc2nc(N(C)CCCCCCN(C)C(=O)c3ccccc3CN(C)C)nc(N)c2cc1OC`: under 5, 5.5 nM, 13.2 nM and 91.2 nM.
With `COc1cc2nc(N(C)CCCCCCN(C)C(=O)c3ccc(CN(C)C)o3)nc(N)c2cc1OC`, the pA2 in assay [1] is given as under 5. For the same compound, the Kb was 5.89 nM in assay [2], 2.4 nM in assay [3] and 38.9 nM in assay [4].
As to `CNCCCCCCN(C)Cc1ccc(C(=O)N(C)CCCCCCN(C)c2nc(N)c3cc(OC)c(OC)cc3n2)cc1`, the pA2 in assay [1] came to 5.6. The Kb was 3.47 nM in assay [2], 0.617 nM in assay [3] and 191 nM in assay [4].
For `CNCCCCCCN(C)Cc1cccc(C(=O)N(C)CCCCCCN(C)c2nc(N)c3cc(OC)c(OC)cc3n2)c1`, in that order: under 5, 14.5 nM, 19.5 nM and 8.91 nM.
On to `COc1ccccc1N1CCN(CCN2C(=O)CC3(CCCC3)CC2=O)CC1` [BMY-7378], for which, in assay [1], the pA2 is recorded as under 5. In assay [5], the affinity corresponds to a Ki of 64.6 nM.
The compound `COc1cc2nc(N(C)CCCCCCN(C)C(=O)c3ccccc3CCl)nc(N)c2cc1OC` showed a pA2 in assay [1] of 5.31. The figures for the Kb in assay [2], in assay [3] and in assay [4] were 2.82 nM, 1.86 nM and 417 nM, respectively.

As a reminder, the pA2 is the negative logarithm of the molar antagonist concentration that doubles the agonist concentration needed for the same response. A low value points to a weaker antagonist. What is called Ki is the equilibrium dissociation constant of an inhibitor or competing ligand from its target. Lower therefore signals tighter binding.
